Results published in PubChem BioAssay (NCI).
Where “and” joins values, the source holds several entries; their conditions need not be identical. Equal values may be shown once.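 Protocol summary: plate cells (96-well), add compound at 5 concentrations, incubate 48 h, interpolate endpoints linearly. At the GI50, growth is halved. TGI is the concentration that stops growth completely.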 Where a SMILES comes first, the peptide text is derived from it. The star is where a group is joined. Boc = CC(C)(C)OC(=O)*; OBn = c1ccc(CO*)cc1; Bn = c1ccc(C*)cc1

Columns and labels:
Assay in all cases: inhibition of tumour cell growth, NCI panel, 48 h
UACC-257 melanoma = system: UACC-257 melanoma
NCI-H23 lung = system: NCI-H23 lung
UACC-62 melanoma = system: UACC-62 melanoma
M14 melanoma = system: M14 melanoma
SK-MEL-2 melanoma = system: SK-MEL-2 melanoma
NCI-H460 lung = system: NCI-H460 lung
SW-620 colon = system: SW-620 colon
RPMI-8226 leukemia = system: RPMI-8226 leukemia
DU-145 prostate = system: DU-145 prostate
SF-295 CNS = system: SF-295 CNS
HOP-92 NSCLC = system: HOP-92 NSCLC

Row | SMILES | GI50 (UACC-257 melanoma) | TGI (UACC-257 melanoma) [µM] | GI50 (NCI-H23 lung) | TGI (NCI-H23 lung) | GI50 (UACC-62 melanoma) | TGI (UACC-62 melanoma) | GI50 (M14 melanoma) | TGI (M14 melanoma) | TGI (SK-MEL-2 melanoma) | GI50 (NCI-H460 lung) | TGI (NCI-H460 lung) [µM] | TGI (SW-620 colon) | GI50 (RPMI-8226 leukemia) | TGI (RPMI-8226 leukemia) [µM] | GI50 (DU-145 prostate) | TGI (DU-145 prostate) [µM] | GI50 (SF-295 CNS) | TGI (SF-295 CNS) [µM] | TGI (HOP-92 NSCLC) [µM]
1 | CC(=O)OCC1OC(n2c(-c3ccccc3)c(N=Nc3ccc(Cl)cc3)c(C)c(C#N)c2=S)C(OC(C)=O)C(OC(C)=O)C1OC(C)=O (stereo not drawn) | 16.5 µM and > 100 µM | > 100 | 2.75 µM and 22.3 µM | 14.9 µM and > 100 µM | 3.2 µM and 14.4 µM | 15 µM and > 100 µM | 9.33 µM and 71.1 µM | 32.4 µM and > 100 µM | 39.6 µM and > 100 µM | 5.26 µM and 51.2 µM | > 100 | 34.6 µM and > 100 µM | 6.64 µM and 37.9 µM | > 100 | 25.3 µM and > 100 µM | > 100 | 25.2 µM and 56.7 µM | > 100 | 
2 | Cc1ccc(S(=O)/C=C(\NC(=O)OCc2ccccc2)C(F)(F)F)cc1 (stereo not drawn) |  | > 100 |  | > 100 µM |  | > 100 µM |  | > 100 µM | > 100 µM |  | > 100 | > 100 µM |  |  |  | > 100 |  | > 100 | > 100
3 | CC(C)CC(NC(=O)C(Cc1ccccc1)NC(=O)C(COCc1ccccc1)NC(=O)OC(C)(C)C)C(=O)OCc1ccccc1 (stereo not drawn) (Boc-Ser(Bn)-Phe-Leu-OBn; configuration not given here) |  | > 100 |  | 43.2 µM |  | 33 µM |  | > 100 µM | > 100 µM |  | 26.4 | 56.7 µM |  | 33.2 |  | 25.2 |  | 51.1 | 
4 | CC(C)(C)NNc1c([N+](=O)[O-])cnn(-c2ccccc2)c1=O |  | 11.4 |  | 11.1 µM |  | 9.39 µM |  | 4.88 µM |  |  | 26.3 | 3.41 µM |  | 23.8 |  | 26 |  | 20.1 | 12.3
5 | OC(Cn1cncn1)(Cn1cncn1)c1ccc(Cl)cc1Cl |  | > 100 |  | > 100 µM |  | > 100 µM |  | > 100 µM | > 100 µM |  | > 100 | > 100 µM |  | > 100 |  |  |  | > 100 | > 100
6 | CC1OC(OP(=O)(OCc2ccccc2)OCc2ccccc2)C(OC(=O)c2ccccc2)C(OC(=O)c2ccccc2)C1I (stereo not drawn) |  | > 100 |  | > 100 µM |  | > 100 µM |  | > 100 µM | > 100 µM |  | > 100 | > 100 µM |  | 97.8 |  |  |  | > 100 | 
7 | CC(=O)OC1COC(N2C(=O)C(=O)c3cc(Br)c([N+](=O)[O-])cc32)C(OC(C)=O)C1OC(C)=O (stereo not drawn) |  | > 100 |  | > 100 µM |  | > 100 µM |  | > 100 µM | > 100 µM |  | > 100 | > 100 µM |  | > 100 |  |  |  | > 100 | 93.3
8 | Cn1cc(C(=O)C2CCCCC2)ccc1=O |  |  |  | > 100 µM |  | > 100 µM |  | > 100 µM | > 100 µM |  | > 100 | > 100 µM |  | > 100 |  |  |  | > 100 | > 100
9 | C[C@H](NC(=O)OC1C2C=CC(O)C1CC2)c1ccccc1 (stereo partly drawn) |  | > 100 |  | > 100 µM |  | > 100 µM |  | > 100 µM | > 100 µM |  | > 100 |  |  | 48.6 |  |  |  | > 100 | 
10 | CCc1nnc2sc(-c3ccc(-c4ccc(Cl)cc4Cl)o3)nn12 |  | > 100 |  | > 100 µM |  |  |  | > 100 µM | > 100 µM |  | > 100 | > 100 µM |  | > 100 |  | > 100 |  | > 100 | > 100
11 | CCOc1ccc(N=NC2C(=O)N(C(=O)CC(=O)Nc3ccc(Cl)cc3)N=C2C)cc1 (stereo not drawn) |  |  |  | > 100 µM |  | > 100 µM |  | > 100 µM | > 100 µM |  | > 100 | > 100 µM |  | > 100 |  | > 100 |  | > 100 | > 100
12 | COc1ccc(NS(=O)C2CCCCC2)cc1 (stereo not drawn) |  | > 100 |  | > 100 µM |  |  |  | > 100 µM |  |  | > 100 | > 100 µM |  | > 100 |  | > 100 |  | > 100 | 
13 | Fc1ccc(C(=NCc2ccccc2)N2CCOCC2)cc1 |  | > 100 |  | > 100 µM |  | > 100 µM |  | > 100 µM | > 100 µM |  | > 100 | > 100 µM |  | > 100 |  | > 100 |  | > 100 | 
14 | O=Cc1cc(O)c(O)c(O)c1-c1c(C=O)cc(O)c(O)c1O |  | > 100 |  | > 100 µM |  | > 100 µM |  | > 100 µM | > 100 µM |  | > 100 | > 100 µM |  | > 100 |  |  |  | > 100 | 
15 | Cc1ccc(Nc2ncnc3sc(SCc4ccccc4)nc23)cc1 |  | > 100 |  | > 100 µM |  |  |  | > 100 µM | > 100 µM |  | > 100 | > 100 µM |  | > 100 |  | > 100 |  | > 100 | > 100
16 | Cc1c(Cl)cccc1NC(=O)C(=O)C1C(=O)NC(=O)NC1=O |  | > 100 |  | > 100 µM |  | > 100 µM |  | > 100 µM | > 100 µM |  | > 100 | > 100 µM |  | > 100 |  |  |  | > 100 | > 100
17 | CCOC(=O)c1cc(-c2ccc(OC)c(OC)c2)cn1C |  | > 10 |  | > 10 µM |  | > 10 µM |  | > 10 µM | > 10 µM |  | > 10 |  |  | > 10 |  | > 10 |  | > 10 | > 10
18 | CC1OC(OC2C(CO)OC(O[C@H]3CC[C@@]4(C)C(=CC[C@H]5[C@@H]6C[C@@H]7O[C@](O)(CC[C@@H](C)COC8OC(CO)C(O)C(O)C8O)[C@@H](C)[C@@H]7[C@@]6(C)CC[C@@H]54)C3)C(OC3OC(C)C(O)C(O)C3O)C2O)C(O)C(O)C1O (stereo partly drawn) |  | 14.5 |  | 10.3 µM |  | 5.68 µM | 2.24 µM | 4.69 µM | 12.3 µM |  | 4.57 | 2.97 µM |  | 10.2 |  | 4.97 |  | 11.8 | 
19 | N#Cc1nn(-c2ccc(Cl)cc2)c(N)c2c(=N)n3nc(-c4ccccc4)cc3nc12 |  | > 100 |  | > 51.9 µM |  | > 35.7 µM |  | > 100 µM | > 20.7 µM |  | > 92.3 | > 100 µM |  |  |  |  |  | > 24.5 | 
20 | N#CC(C(=O)c1ccccc1F)c1nc2cc(C(F)(F)F)ccc2s1 (stereo not drawn) |  | > 100 |  | 53.9 µM |  |  |  |  |  |  | > 100 | 82.4 µM |  | 85 |  | > 100 |  | 73.4 | 56.2
